Test [1] concerns MAGE-D1 gene-deficient mice. The experiment in a line: Forced swim test, evaluation of depression-like behavior in model mice. The class given is in vivo, mouse. To be noted: for average value of immobility time: immobility measured for 10 minutes, 0 mg/kg group 425 seconds; for depression-like behavior in model mice: FIG. 1A desipramine, FIG. 1B atomoxetine; for increase in immobility time of model mice in the forced swim test (result in words): desipramine 10 mg/kg or atomoxetine 3 mg/kg i.p., FIGS. 1A and 1B. The source says: A targeting vector (Stratagene: pBlueScript) for homologous recombination between a MAGE-D1 gene (Gene bank: NM_019791.2) exon and a drug (G418)-resistant gene (GenBank: U00004.1) was electroporated into embryo stem (ES) cells derived from 129Svj mice (supplied from National Center for Geriatrics and Gerontology), and drug-resistant colonies were selected. A homologous recombinant was identified from the selected drug-resistant colonies by Southern blotting. The identified target homologous recombinant ES cell clone was injected into C57BL/6J mouse blastocyst-stage embryos to generate chimeric mice. The chimeric mice were mated with wild-type C57BL/6J mice to generate F1 heterozygous MAGE-D1 gene-deficient mice. The heterozygous MAGE-D1 gene-deficient mice were mated with wild-type C57BL/6J mice up to the F10 generation. The mice having a 99.9% C57BL/6J genetic background were used (When mating with a C57BL/6J mouse is performed once, about half of the genes of a newborn mouse are derived from the C57BL/6J mouse used for mating. That is, it is considered that when mating with a C57BL/6J mouse is performed n times, about [1−(½)^n+1]×100% of genes are derived from the C57BL/6J mouse.) The mice having such a genetic background were defined as MAGE-D1 gene-deficient mice (hereinafter, also referred to as model mice) and used in the following tests.
(§1) Experimental Equipment and Procedure: A water bath (diameter 15 cm×height 20 cm) filled with water (water temperature: about 22° C., depth: 13 cm) was used as experimental equipment. A wild-type C57BL/6J mouse as a control or a model mouse was placed in the water bath, and just after that, immobility time was measured by Scanet MV-10 AQ (Brain Science Idea, Osaka, Japan) every 1 minute for 10 minutes.
(§2) Thirty minutes before the test, 10 mg/kg of desipramine (Sigma, St. Louis, Mo.) or 3 mg/kg of atomoxetine (LKT Laboratories, Inc, MN) dissolved in normal saline was intraperitoneally administered. As a control, the solvent was intraperitoneally administered.
(§3) In Examples, MAGE-D1 gene-deficient mice were used as animal models. The forced swim test was used for evaluating depression-like behavior. In the forced swim test, a mouse is placed in a narrow cylinder filled with water so as to recognize the impossibility of escape therefrom, and the time that the mouse floats on water without moving is evaluated as decreased motivation. […] Each administration test was performed in triplicate, and therefore graphs in FIGS. 1A and 1B show average values.

The subject of the next test is wild-type C57BL/6J mouse. The experiment in a line: Forced swim test in control mice. It counts as in vivo. To be noted: immobility measured for 10 minutes, 0 mg/kg group 203 seconds. The procedure:
as §1, §2, §3

The mark [2] stands for this setting: 10 mg/kg intraperitoneally 30 min before test.
[3] abbreviates: 3 mg/kg intraperitoneally 30 min before test.

The values that follow come from patent publication US20170248586A1, “Marker For Depression, Assay Method, Method For Determining Depression, Screening Method For Antidepressants, And Kit” (MEIJO UNIVERSITY, priority 2013, published 2017).

Regarding `CNCCCN1c2ccccc2CCc2ccccc21` [desipramine], the “average value of immobility time” value in test [1] (setting [2]) turned out to be 334 s; in the test with wild-type C57BL/6J mouse (setting [2]) it was 215 s. In addition, in test [1], the “depression-like behavior in model mice” value is “relieved”. In test [1], the “increase in immobility time of model mice in the forced swim test (result in words)” value is “significantly reduced”.
Consider `CNCC[C@@H](Oc1ccccc1C)c1ccccc1` [atomoxetine], for which the “average value of immobility time” value in test [1] (setting [3]) turned out to be 283 s. Also, in test [1], the “depression-like behavior in model mice” value was “relieved” and the “increase in immobility time of model mice in the forced swim test (result in words)” value is reported as “significantly reduced”. In addition, the “average value of immobility time” value in the test on wild-type C57BL/6J mouse (setting [3]) worked out at 205 s.
